In patent US20250002473A1, “QUINOXALINE DERIVED SULFONAMIDES WITH EGFR DEGRADATION ACTIVITIES AND THEIR USES THEREOF” (Accutar Biotechnology Inc., priority 2023, published 2025):

Tests used:
Assay type in all cases: cell-based
[1] = tested on: BaF3_DTC (EGFR_Exon19del/T790M/C797S); experiment: EGFR degradation assay (western blot), BaF3_DTC cells; conditions: BaF3_DTC cells (EGFR_Exon19del/T790M/C797S), compounds 24 h, western blot; read-out: BaF3_DTC DC50
Description: (§1) A431 (EGFR_WT), NCl-H2073 (EGFR_WT), NCl-H292 (EGFR_WT), BaF3_YVAM (Her2_A775insYVAM), BaF3_SVD (EGFR_D770insSVD), BaF3_ASV (EGFR_A776inASV), or BaF3_DTC (EGFR_Exon19del/T790M/C797S) cells were seeded in a 24-well plate at a density of 4×10^5 cells per well for EGFR WT cells and 8× cells per well for EGFR or Her2 mutant cells, and the plates were incubated overnight. The cells were treated with the desired compounds for 24 h. The culture medium was removed, and 100 μL of RIPA buffer (Beyotime, P0013B) containing 1% Protease Inhibitor Cocktail (Bimake, B14001), 1% Phosphatase Inhibitor Cocktail 2 (Sigma, P5726), and 1% Phosphatase Inhibitor Cocktail 3 (Sigma, P0044) were added to lyse the cells. Then, the cell lysates were transferred to 1.5 mL microcentrifuge tubes and centrifuged at 12,000 rpm and 4° C. for 30 min. The supernatants were transferred into new tubes, and the protein concentration was determined using the BCA protein quantification method. All samples were diluted to the same concentration using RIPA buffer, loading buffer was added, samples were denatured, and 15 μg of protein per lane was loaded onto a SurePAGE 4-20% Bis-Tris gel. Samples were separated via electrophoresis in MOPS running buffer at 180 V for 100 min. Then, proteins were transferred onto PVDF membranes using the MiniBlot™ Electrophoretic Transfer Cell Device (Beyotime, E6050). The membrane was blocked using block buffer (LI-COR 927-60001) to prevent non-specific binding. The membrane was incubated with primary antibodies (1:500 dilution, EGFR-CST4405, 1:2000 dilution, Tubulin-ABclonal #AC021) at 4° C. overnight. The membrane was washed three times with 1× TBST buffer for 15 min each. The membrane was incubated with secondary antibodies IRDye 680RD Goat anti-Rabbit IgG Secondary Antibody (1:2000 dilution, LI-COR 926-68071) and IRDye 800CW Goat anti-Mouse IgG Secondary Antibody (1:2000 dilution, LI-COR 926-32210). Finally, the membrane was washed again with 1× TBST buffer 3 times. Fluorescence was detected using the Odyssey CLx Imaging System, and the data were analyzed with Empiria Studio Software and GraphPad Prism 9. Table 4 and Table 5 list the degradation results, where the degradation potency is represented by DC50, the concentration of compounds to cause the degradation of 50% of the corresponding proteins. FIGS. 45-49 show western blots illustrating the EGFR degradative activity of exemplary Compound of the present disclosure and a comparator Compound A in different cell lines 24 h after administration. The Compound referred herein as Compound A is disclosed in WO 2022/171123 A1 (see, compound 133, page 46; published Aug. 18, 2022). WO 2022/171123 A1 discloses phosphine oxide derived molecules with EGFR degradation activity.

BaF3_ASV = experiment: Cell growth inhibition assay (CellTiter-Glo), BaF3_ASV; conditions: 72 h; Table 6; BaF3_ASV cells, three days, CellTiter-Glo; read-out: BaF3_ASV GI50
Description: (§2) Cells were seeded in a 96-well plate (Corning 3610) with 90 μL of culture medium per well, and plates were incubated at 37° C. overnight. A 1,000× DMSO stock solution of the desired compound was prepared the following day. A compound dilution plate was prepared by diluting the stock solution 1:100 in the corresponding cell culture medium, 10 μL of the diluted compound solution was added to each 96-well plate well containing the seeded cells. […] The content of the wells was mixed by shaking continuously for 10 min, and luminescence was measured using Envision (PerkinElmer). The data were analyzed with GraphPad Prism 9 (see FIG. 50).
(§3) Table 6, Table 7, and Table 8 list the cell growth inhibition results, where Gls0 represents the compound concentration to cause 50% cell growth inhibition in comparison with DMSO.

A431 = experiment: Cell growth inhibition assay (CellTiter-Glo), A431; conditions: Homo sapiens, A-431, 72 h, Table 6; A431 cells, three days, CellTiter-Glo; read-out: A431 GI50
Description: as §2, §3

[2] = target: T1, BaF3_ASV (EGFR_A776inASV) (Homo sapiens, UniProt P00533, DUP767-769); experiment: EGFR degradation assay (western blot), BaF3_ASV cells; conditions: BaF3_ASV cells, compounds 24 h, western blot; read-out: BaF3_ASV DC50
T1 construct: expressed in transfected cells; host or cells: Ba/F3 (engineered)
Description: as §1

BaF3_DTC = experiment: Cell growth inhibition assay (CellTiter-Glo), BaF3_DTC; conditions: 72 h; Table 6; BaF3_DTC cells, three days, CellTiter-Glo; read-out: BaF3_DTC GI50
Description: as §2, §3

A431 (EGFR_WT) = target: T2, A431 (EGFR_WT) (Homo sapiens, UniProt P00533); experiment: EGFR degradation assay (western blot), A431 cells; conditions: compounds 24 h, western blot, read-out: A431 DC50
T2 construct: endogenous in cells; host or cells: A431, NCI-H2073, NCI-H292
Description: as §1

T1 sequence (P00533 with tags, fused parts or gaps DUP767-769): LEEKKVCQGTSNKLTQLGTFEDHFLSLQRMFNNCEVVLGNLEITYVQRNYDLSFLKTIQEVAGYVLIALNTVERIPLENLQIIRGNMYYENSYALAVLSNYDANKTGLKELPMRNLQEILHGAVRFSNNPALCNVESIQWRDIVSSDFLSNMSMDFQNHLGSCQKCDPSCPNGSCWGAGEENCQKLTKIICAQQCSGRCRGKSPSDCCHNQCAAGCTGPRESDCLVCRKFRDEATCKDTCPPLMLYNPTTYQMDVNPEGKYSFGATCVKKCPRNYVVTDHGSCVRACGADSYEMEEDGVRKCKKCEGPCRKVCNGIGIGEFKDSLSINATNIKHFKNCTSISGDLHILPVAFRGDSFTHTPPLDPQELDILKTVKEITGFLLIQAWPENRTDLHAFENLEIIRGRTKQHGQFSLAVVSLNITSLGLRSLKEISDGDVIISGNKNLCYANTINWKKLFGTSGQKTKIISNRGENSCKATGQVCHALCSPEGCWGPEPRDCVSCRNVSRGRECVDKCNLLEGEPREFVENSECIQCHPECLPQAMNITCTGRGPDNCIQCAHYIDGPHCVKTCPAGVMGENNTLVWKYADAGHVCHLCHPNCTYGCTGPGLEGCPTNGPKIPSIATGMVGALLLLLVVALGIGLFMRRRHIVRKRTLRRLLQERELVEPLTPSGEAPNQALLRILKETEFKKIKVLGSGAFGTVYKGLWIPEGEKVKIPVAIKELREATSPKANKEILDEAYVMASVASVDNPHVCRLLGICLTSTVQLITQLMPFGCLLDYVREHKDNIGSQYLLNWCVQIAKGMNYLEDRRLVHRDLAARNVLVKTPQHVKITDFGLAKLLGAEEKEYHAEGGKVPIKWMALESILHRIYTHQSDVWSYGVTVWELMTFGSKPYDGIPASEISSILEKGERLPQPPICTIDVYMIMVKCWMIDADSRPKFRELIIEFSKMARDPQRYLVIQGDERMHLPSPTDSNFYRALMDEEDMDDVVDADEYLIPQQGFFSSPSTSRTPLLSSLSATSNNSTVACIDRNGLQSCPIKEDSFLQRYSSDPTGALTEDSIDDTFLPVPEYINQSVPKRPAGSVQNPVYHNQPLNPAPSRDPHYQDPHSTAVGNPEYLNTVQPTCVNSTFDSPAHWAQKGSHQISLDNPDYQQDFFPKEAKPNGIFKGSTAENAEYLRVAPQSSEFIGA
T2 sequence (P00533 25-1210): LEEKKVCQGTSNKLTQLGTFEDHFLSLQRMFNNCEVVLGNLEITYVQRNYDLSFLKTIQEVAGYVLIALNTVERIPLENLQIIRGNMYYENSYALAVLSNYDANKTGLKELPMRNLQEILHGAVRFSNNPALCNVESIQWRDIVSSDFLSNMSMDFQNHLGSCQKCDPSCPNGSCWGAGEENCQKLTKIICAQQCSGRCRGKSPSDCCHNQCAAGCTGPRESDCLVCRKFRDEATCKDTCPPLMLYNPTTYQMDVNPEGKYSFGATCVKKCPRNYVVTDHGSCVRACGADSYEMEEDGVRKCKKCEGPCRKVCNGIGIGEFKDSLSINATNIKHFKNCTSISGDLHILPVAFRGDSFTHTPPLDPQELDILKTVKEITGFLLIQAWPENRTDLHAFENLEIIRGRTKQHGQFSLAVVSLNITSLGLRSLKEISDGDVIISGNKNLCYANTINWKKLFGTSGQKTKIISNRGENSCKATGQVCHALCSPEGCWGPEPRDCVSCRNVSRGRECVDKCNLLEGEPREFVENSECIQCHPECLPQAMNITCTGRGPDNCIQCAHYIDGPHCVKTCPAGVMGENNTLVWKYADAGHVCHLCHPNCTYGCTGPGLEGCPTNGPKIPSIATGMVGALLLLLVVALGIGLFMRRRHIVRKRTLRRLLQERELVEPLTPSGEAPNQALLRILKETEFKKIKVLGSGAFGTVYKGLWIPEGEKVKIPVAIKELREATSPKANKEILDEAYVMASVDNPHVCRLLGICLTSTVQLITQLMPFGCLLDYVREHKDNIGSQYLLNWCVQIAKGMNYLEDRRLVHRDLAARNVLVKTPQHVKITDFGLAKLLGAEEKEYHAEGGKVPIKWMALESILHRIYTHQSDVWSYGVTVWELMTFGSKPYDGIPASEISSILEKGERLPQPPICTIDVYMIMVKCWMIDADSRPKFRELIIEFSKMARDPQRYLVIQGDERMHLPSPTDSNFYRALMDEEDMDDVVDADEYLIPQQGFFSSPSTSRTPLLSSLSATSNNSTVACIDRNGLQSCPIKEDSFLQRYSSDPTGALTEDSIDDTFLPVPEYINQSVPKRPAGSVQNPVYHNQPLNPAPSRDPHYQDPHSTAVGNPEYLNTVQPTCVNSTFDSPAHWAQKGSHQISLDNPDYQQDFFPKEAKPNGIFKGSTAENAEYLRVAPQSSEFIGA

| Compound | DC50 [1] | GI50 (BaF3_ASV) | GI50 (A431) | DC50 [2] | GI50 (BaF3_DTC) | DC50 (A431 (EGFR_WT)) |
| --- | --- | --- | --- | --- | --- | --- |
| CCc1cc(Nc2ncc(Br)c(Nc3ccc4nccnc4c3NS(C)(=O)=O)n2)c(OC)cc1N1CCC(N2CC[C@@H](CN3CCN(c4ccc5c(c4)CN([C@H]4CCC(=O)NC4=O)C5=O)CC3)C2)CC1 [Compound 92] | 3.97 nM | 92.9 nM | > 1000 nM | 24.5 nM | 14.6 nM | > 1000 nM |
| CCc1cc(Nc2ncc(Br)c(Nc3ccc4nccnc4c3NS(C)(=O)=O)n2)c(OC)cc1N1CCC(N2CCN(C(=O)C3CCN(c4ccc5c(c4)CN(C4CCC(=O)NC4=O)C5=O)CC3)CC2)CC1 (stereo not drawn) [Compound 10, N-(6-((5-bromo-2-((4-(4-(4-(1-(2-(2,6-dioxopiperidin-3-yl)-1-oxoisoindolin-5-yl)piperidine-4-carbonyl)piperazin-1-yl)piperidin-1-yl)-5-ethyl-2-methoxyphenyl)amino)pyrimidin-4-yl)amino)quinoxalin-5-yl)methanesulfonamide] | 1.21 nM | 72.7 nM | > 1000 nM | 20 nM | 9.6 nM | > 1000 nM |
| CCc1cc(Nc2ncc(Br)c(Nc3ccc4nccnc4c3NS(C)(=O)=O)n2)c(OC)cc1N1CCC(N2CCN(CCc3cc(F)c(C4CCC(=O)NC4=O)c(F)c3)CC2)CC1 (stereo not drawn) [Compound 71, N-(6-((5-bromo-2-((4-(4-(4-(4-(2,6-dioxopiperidin-3-yl)-3,5~difluorophenethyl)piperazin-1-yl)piperidin-1-yl)-5-ethyl-2-methoxyphenyl)amino)pyrimidin-4-yl)amino)quinoxalin-5-yl)methanesulfonamide] | 3.51 nM | 131 nM | > 3000 nM | 55.1 nM | 5.41 nM | > 1000 nM |
| CCc1cc(Nc2ncc(Br)c(Nc3ccc4nccnc4c3NS(C)(=O)=O)n2)c(OC)cc1N1CCC(N2CC3(CCN(c4ccc5c(c4)CN(C4CCC(=O)NC4=O)C5=O)CC3)C2)CC1 (stereo not drawn) [Compound 57, N-(6-((5-bromo-2-((4-(4-(7-(2-(2,6-dioxopiperidin-3-yl)-1~oxoisoindolin-5-yl)-2,7-diazaspiro[3.5]nonan-2-yl)piperidin-1-yl)-5-ethyl-2-methoxyphenyl)amino)pyrimidin-4-yl)amino)quinoxalin-5-yl)methanesulfonamide] | 4.73 nM | 51.5 nM | 360 nM | 44.5 nM | 5.89 nM | > 1000 nM |
| CCc1cc(Nc2ncc(Br)c(Nc3ccc4nccnc4c3NS(C)(=O)=O)n2)c(OC)cc1N1CCC(N2CCC(C(=O)N3CCN(c4ccc5c(c4)CN([C@H]4CCC(=O)NC4=O)C5=O)CC3)CC2)CC1 [Compound 41, (S)-N-(6-((5-bromo-2-((4-(4-(4-(2-(2,6-dioxopiperidin-3-yl)-1-oxoisoindolin-5-yl)piperazine-1-carbonyl)-[1,4′-bipiperidin]-1′-yl)-5-ethyl-2-methoxyphenyl)amino)pyrimidin-4-yl)amino)quinoxalin-5-yl)methanesulfonamide] | > 100 nM | 52.7 nM | > 1000 nM | 335 nM | 123 nM | > 1000 nM |
| CCc1cc(Nc2ncc(Br)c(Nc3ccc4nccnc4c3NS(C)(=O)=O)n2)c(OC)cc1N1CCC(N2CCN(CC3CCN(c4ccc5c(c4)CN(C4CCC(=O)NC4=O)C5=O)CC3)CC2)CC1 (stereo not drawn) [Compound 7, N-(6-((5-bromo-2-((4-(4-(4-((1-(2-(2,6-dioxopiperidin-3-yl)-1-oxoisoindolin-5-yl)piperidin-4-yl)methyl)piperazin-1-yl)piperidin-1-yl)-5-ethyl-2-methoxyphenyl)amino)pyrimidin-4~yl)amino)quinoxalin-5-yl)methanesulfonamide] | 2.43 nM | 41.9 nM | > 1000 nM | 16.6 nM | 2.84 nM | > 1000 nM |
| CCc1cc(Nc2ncc(Br)c(Nc3ccc4nccnc4c3NS(C)(=O)=O)n2)c(OC)cc1N1CCC(N2CCN(CCc3cccc4c3CN(C3CCC(=O)NC3=O)C4=O)CC2)CC1 (stereo not drawn) [Compound 9, N-(6-((5-bromo-2-((4-(4-(4-(2-(2-(2,6-dioxopiperidin-3-yl)-1-oxoisoindolin-4-yl)ethyl)piperazin-1-yl)piperidin-1-yl)-5-ethyl-2-methoxyphenyl)amino)pyrimidin-4-yl)amino)quinoxalin-5-yl)methanesulfonamide] | 8.05 nM | 563 nM | > 1000 nM | 251 nM | 14.7 nM | > 1000 nM |
| CCc1cc(Nc2ncc(Br)c(Nc3ccc4nccnc4c3NS(C)(=O)=O)n2)c(OC)cc1N1CCC(N2CCN(c3ccc4c(c3)CN([C@H]3CCC(=O)NC3=O)C4=O)CC2)CC1 [Compound 38, (S)-N-(6-((5-bromo-2-((4-(4-(4-(2-(2,6-dioxopiperidin-3-yl)-1-oxoisoindolin-5-yl)piperazin-1-yl)piperidin-1-yl)-5-ethyl-2-methoxyphenyl)amino)pyrimidin-4-yl)amino)quinoxalin-5~yl)methanesulfonamide] | 4.2 nM | 90.3 nM | > 1000 nM | 35.1 nM | 9.14 nM | > 1000 nM |
| CCc1cc(Nc2ncc(Br)c(Nc3ccc4nccnc4c3NS(C)(=O)=O)n2)c(OC)cc1N1CCC(N2CCN(CC3CCN(c4ccc5c(c4)C(=O)N(C4CCC(=O)NC4=O)C5=O)CC3)CC2)CC1 (stereo not drawn) [Compound 6, N-(6-((5-bromo-2-((4-(4-(4-((1-(2-(2,6-dioxopiperidin-3-yl)-1,3-dioxoisoindolin-5-yl)piperidin-4-yl)methyl)piperazin-1-yl)piperidin-1-yl)-5-ethyl-2-methoxyphenyl)amino)pyrimidin-4-yl)amino)quinoxalin-5-yl)methanesulfonamide] | 5.94 nM | 282 nM | > 1000 nM | 289 nM | 11.2 nM | > 1000 nM |
| CCc1cc(Nc2ncc(Br)c(Nc3ccc4nccnc4c3NS(C)(=O)=O)n2)c(OC)cc1N1CCC(N2CCN(C3CC4(CCN(c5ccc6c(c5)CN(C5CCC(=O)NC5=O)C6=O)CC4)C3)CC2)CC1 (stereo not drawn) [Compound 48, N-(6-((5-bromo-2-((4-(4-(4-(7-(2-(2,6-dioxopiperidin-3-yl)-1-oxoisoindolin-5-yl)-7-azaspiro[3.5]nonan-2-yl)piperazin-1-yl)piperidin-1-yl)-5-ethyl-2-methoxyphenyl)amino)pyrimidin-4-yl)amino)quinoxalin-5-yl)methanesulfonamide] | 4.26 nM | 36.8 nM | > 1000 nM | 23.7 nM | 6.04 nM | > 1000 nM |
